In US6380168B1, “Method for promoting hair growth” (Nomura Co., Ltd., priority 1992, dated 2002):
Values joined by “and” are separate entries in the source; they are usually repeats but may differ in a detail not shown here. Identical values can stand only once.

What was measured:
[1] = Skin blood flow in rats after topical application, measured with a Laser Doppler Flowmeter; type: in vivo, Wistar male rats; conditions: rat, measured after 20 minutes
Protocol: Wistar male rats (180 to 200 g weights) were employed as experimental animals. The quantity of the skin blood in this experiment was measured with a Laser Doppler Flowmeter (PF2B, Perimed). The backs of rats were sheared. A day later, the rats were anesthetisized with urethane (1 g/Kg) and a quantity of blood flow was measured. This quantity was defined as a normal flow.
Immediately after the measurement of the normal flow, a group of rats were treated with topical application of 25 μl of test liquid in 50% ethanol solution and a group of rats were treated with topical application of 50% ethanol solution as a control. The skin blood flow was measured at 20 minute, 40 minute and 60 minute intervals. MeOH extract from Calanthe discolor Lindl. (CDM-ext: 0.5% and 2.0%), Calanthoside A (0-20%), and indilbin (0.2%) were tested, and the results for the extract are shown in Table 1.
The ability of Calanthoside B to increase skin blood flow can be used to promote hair growth.

tyrosinase = assay: Tyrosinase inhibition (L-Dopa, dopachrome absorbance at 475 nm, procedure of Manson and Peterson); type: biochemical, mushroom
Protocol: This experiment was conducted according to the procedure of Manson and Peterson. A 0.5 ml L-Dopa solution (0.03% in pH6.8 PBS) was added to 0.5 ml of a test liquid, and incubated for 5 minutes at 25° C. After which, a 0.5 ml of tyrosinase solution (obtained from a mushroom) was added and the mixture was further incubated for 5 minutes at 25° C. […] Kojic acid was used for a positive control test.

OCC1O[C@@H](OCC2O[C@@H](Oc3c[nH]c4ccccc34)C(O)C(O)[C@@H]2O)C(O)C(O)[C@@H]1O (stereo partly drawn) [Calanthoside A, 3-O-β-D-glucopyranosyl (1-6)-β-D-glucopyranosylindole]
skin blood flow (result in words) ([1]; Calanthoside A (0-20%)): increases skin blood flow
% Inhibition (tyrosinase; concentration 50 μg/ml): 38.6%
% Inhibition (tyrosinase; concentration 200 μg/ml): 65.9%

OCC1O[C@@H](Oc2c(S[C@@H]3OC(CO)[C@@H](O)C(O)C3O)[nH]c3ccccc23)C(O)C(O)[C@@H]1O (stereo partly drawn) [Calanthoside B, 2-S-β-D-glucopyranosyl-3-O-β-D-glucopyrannosyl-2-mercaptoindole]
skin blood flow (result in words) ([1]; 0.2%): increases skin blood flow

O=c1cc(CO)occ1O [Kojic Acid, Kojic acid]
% Inhibition (tyrosinase; concentration 5 (μM)): 32.5% and 28.2% and 23.9%
% Inhibition (tyrosinase; concentration 20 (μM)): 66.0% and 62.2% and 59.3%
% Inhibition (tyrosinase; concentration 50 (μM)): 82.7% and 80.3% and 78.6%
anti-tyrosinase activity (result in words) (tyrosinase; summary of Table 2): strong anti-tyrosinase activity
